Literature values in patent US20250082627A1, “TOBACCO HARM REDUCTION AND PAIN RELIEF PRODUCTS AND METHODS THEREOF” (Ready Mix Naturals, LLC, priority 2023, published 2025).

How the values were obtained:
TRPV1 = TRPV1 (Homo sapiens, UniProt Q8NER1); settings: among phytocannabinoids
TRPA1 = TRPA1 (Homo sapiens, UniProt O75762)
TRPV2 = molecular target: T1, TRPV2 (Homo sapiens, UniProt Q9Y5S1); settings: among phytocannabinoids
T1 sequence (Q9Y5S1 1-764): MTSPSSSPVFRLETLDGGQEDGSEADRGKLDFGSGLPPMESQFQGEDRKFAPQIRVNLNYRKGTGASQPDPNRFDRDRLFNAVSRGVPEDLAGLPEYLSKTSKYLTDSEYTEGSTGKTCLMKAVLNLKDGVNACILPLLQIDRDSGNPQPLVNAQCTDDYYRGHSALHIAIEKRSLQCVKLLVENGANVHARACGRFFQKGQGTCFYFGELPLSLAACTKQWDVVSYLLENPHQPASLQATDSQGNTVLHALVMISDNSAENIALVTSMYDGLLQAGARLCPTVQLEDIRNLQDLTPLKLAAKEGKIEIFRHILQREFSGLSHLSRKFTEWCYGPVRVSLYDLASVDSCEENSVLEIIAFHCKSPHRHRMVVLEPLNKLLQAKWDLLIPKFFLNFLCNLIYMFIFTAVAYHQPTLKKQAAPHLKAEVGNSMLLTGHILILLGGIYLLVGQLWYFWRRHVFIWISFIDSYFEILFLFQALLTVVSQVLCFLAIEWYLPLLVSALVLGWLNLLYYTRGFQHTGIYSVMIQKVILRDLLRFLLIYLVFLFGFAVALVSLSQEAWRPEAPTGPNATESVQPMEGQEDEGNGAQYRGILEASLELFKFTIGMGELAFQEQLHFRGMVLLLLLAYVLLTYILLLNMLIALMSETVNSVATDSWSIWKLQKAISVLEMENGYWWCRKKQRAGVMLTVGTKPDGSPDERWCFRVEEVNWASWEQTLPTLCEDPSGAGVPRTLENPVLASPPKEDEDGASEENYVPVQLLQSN

TRPA1, sequence (O75762 whole entry, species assumed): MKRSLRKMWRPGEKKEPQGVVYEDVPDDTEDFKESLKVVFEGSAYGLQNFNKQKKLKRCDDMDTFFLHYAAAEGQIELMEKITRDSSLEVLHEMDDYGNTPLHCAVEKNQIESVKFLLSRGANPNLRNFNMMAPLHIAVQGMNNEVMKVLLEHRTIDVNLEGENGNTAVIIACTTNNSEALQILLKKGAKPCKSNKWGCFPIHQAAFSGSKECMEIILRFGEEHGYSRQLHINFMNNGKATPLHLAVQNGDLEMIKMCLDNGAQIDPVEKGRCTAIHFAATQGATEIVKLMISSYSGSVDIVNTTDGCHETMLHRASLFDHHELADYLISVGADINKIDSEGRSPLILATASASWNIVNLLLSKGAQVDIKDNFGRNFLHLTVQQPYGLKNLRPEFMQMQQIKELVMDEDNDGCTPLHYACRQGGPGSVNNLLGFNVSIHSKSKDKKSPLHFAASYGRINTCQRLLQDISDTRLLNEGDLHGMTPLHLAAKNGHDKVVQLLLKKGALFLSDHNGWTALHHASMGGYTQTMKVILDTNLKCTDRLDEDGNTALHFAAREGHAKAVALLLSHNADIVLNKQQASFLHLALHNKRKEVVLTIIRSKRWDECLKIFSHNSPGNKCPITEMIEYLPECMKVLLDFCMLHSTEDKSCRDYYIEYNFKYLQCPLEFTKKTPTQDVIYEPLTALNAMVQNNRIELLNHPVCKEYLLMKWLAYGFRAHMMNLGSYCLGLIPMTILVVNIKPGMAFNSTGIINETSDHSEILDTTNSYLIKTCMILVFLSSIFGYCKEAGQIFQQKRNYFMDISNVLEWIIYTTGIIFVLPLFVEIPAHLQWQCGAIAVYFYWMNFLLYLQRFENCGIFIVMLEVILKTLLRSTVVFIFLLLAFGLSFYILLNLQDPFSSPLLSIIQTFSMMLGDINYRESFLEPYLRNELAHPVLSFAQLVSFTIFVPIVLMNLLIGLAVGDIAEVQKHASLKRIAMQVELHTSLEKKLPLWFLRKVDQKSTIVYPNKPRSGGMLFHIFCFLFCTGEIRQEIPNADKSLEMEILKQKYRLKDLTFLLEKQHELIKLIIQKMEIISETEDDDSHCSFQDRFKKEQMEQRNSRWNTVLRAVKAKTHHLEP
TRPV1, sequence (Q8NER1 whole entry, species assumed): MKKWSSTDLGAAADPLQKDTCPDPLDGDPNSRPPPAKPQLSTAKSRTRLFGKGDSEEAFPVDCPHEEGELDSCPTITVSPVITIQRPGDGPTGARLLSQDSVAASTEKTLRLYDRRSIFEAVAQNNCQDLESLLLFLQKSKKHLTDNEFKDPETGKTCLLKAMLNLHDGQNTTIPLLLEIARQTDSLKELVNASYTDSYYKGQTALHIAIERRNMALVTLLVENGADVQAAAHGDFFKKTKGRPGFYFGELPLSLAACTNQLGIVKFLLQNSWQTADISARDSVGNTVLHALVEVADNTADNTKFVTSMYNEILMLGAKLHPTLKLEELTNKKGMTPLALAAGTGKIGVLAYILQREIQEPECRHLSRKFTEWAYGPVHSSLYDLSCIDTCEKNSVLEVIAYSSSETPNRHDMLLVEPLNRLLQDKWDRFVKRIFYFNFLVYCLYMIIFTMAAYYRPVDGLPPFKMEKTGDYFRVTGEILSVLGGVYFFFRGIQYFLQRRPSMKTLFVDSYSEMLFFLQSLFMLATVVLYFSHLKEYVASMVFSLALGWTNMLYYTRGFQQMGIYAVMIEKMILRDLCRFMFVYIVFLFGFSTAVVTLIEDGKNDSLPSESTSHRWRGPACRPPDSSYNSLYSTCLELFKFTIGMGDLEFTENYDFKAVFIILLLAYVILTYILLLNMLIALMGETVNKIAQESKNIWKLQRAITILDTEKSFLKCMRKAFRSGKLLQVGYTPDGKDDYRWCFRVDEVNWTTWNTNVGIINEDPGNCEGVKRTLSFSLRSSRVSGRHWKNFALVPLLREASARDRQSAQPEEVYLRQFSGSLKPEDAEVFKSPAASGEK

Structure (SMILES)	agonism of TRPV1 (TRPV1)	activation of TRPA1 (TRPA1)	activation of TRPV2 (TRPV2)
C=C(C)[C@@H]1CCC(C)=C[C@H]1c1c(O)cc(CCCCC)cc1O [CBD, cannabidiol]	most potent and efficacious phytocannabinoid agonist of TRPV1	–	–
CN1CCCC1c1cccnc1 (stereo not shown) [nicotine]	–	known activator of TRPA1	–
CCCCCc1cc(O)c2c(c1)OC(C)(C)[C@@H]1CCC(C)=C[C@@H]21 [Δ^9-THC, Δ^9-tetrahydrocannabinol]	–	also activates TRPA1	most potent phytocannabinoid for activating TRPV2
